Converted amounts (≈) assume the structure as drawn. Like-named read-outs stand apart in the source and are kept apart here.
Tests used:
[1] = tested on: intracellular S. flexneri 5a M90T in TC7 cells; test: microbe, parasite or virus in culture; assay type: cell-based, Shigella flexneri
[2] = tested on: S. flexneri 5a M90T; test: MIC in tryptic soy broth, S. flexneri; assay type: cell-based, Shigella flexneri; settings: for MIC: Shigella flexneri, 5AM90T, read-out: MIC (μM) TSB
Procedure, shortened: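 Each strain was exposed to serially diluted compound in broth, in triplicate. The media were TSB for Shigella; CA-MHB at pH 7.4 (HEPES 40 mM) for S. aureus, P. aeruginosa and UPEC; and, for UPEC only, low-pH LPM (pH 5.5, 30 mM MES).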

[3] = tested on: non-growing UPEC CFT073; test: Dilution-regrowth assay (screen, hit validation, dose-response) on stationary-phase UPEC; assay type: cell-based, Escherichia coli; settings: for Regrowth, OD600 at 6h or 8h after dilution into drug-free medium: average; for OD600 at 6hr, Mean: after dilution into drug-free medium
Procedure, shortened: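 Regrowth (OD600 after 6 h, 37 °C) of diluted non-growing CFT073, following 24 h compound treatment of 24 h stationary cultures, defines activity relative to untreated control. Screen at 20 µM, validation at 20, 10, 5 µM (duplicates), dose–response in three biological replicates fitted by five-parameter logistic.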

[4] = TC7 cells infected with GFP-expressing S. flexneri, 14 h treatment
[5] = Escherichia coli, E. coli, pH 7.4, regrowth delay of non-growing bacteria, 1:4 CA-MHB, 24 h treatment, OD600 6 h after 2500-fold dilution, read-out: EC50

Structure (SMILES) | IC50 ([1]; Shigella flexneri, TC7, 14 h) | Fluorescence intensity (RFU), Mean, 0.25 x MIC [1, 4] | Fluorescence intensity (RFU), Mean, 0.5 x MIC [1, 4] | Fluorescence intensity (RFU), Mean, 2 x MIC [1, 4] | Fluorescence intensity (RFU), Mean, 4 x MIC [1, 4] | Fluorescence intensity (RFU), Mean, 8 x MIC [1, 4] | Fluorescence intensity (RFU), Mean, 16 x MIC [1, 4] | Fluorescence intensity (RFU), Mean, 32 x MIC [1, 4] | Fluorescence intensity (RFU), Mean, MIC [1, 4] | MIC [2] | EC50 [3, 5] | further results
COc1c(N2C[C@@H]3CCCN[C@@H]3C2)c(F)cc2c(=O)c(C(=O)O)cn(C3CC3)c12 [Moxifloxacin] | 35 nM | 7400.12 RFU | 5542.67 RFU | 3672.56 RFU | 2897.78 RFU | 2156.25 RFU | 1789.81 RFU | 1608.56 RFU | 3564.03 RFU | 0.0625 µM (≈ 0.0251 µg/mL) | 649 nM | Regrowth, OD600 at 6h or 8h after dilution into drug-free medium ([3]; E. coli in 1:4 CA-MHB (pH 7.4), concentration 0.25): 0.565; Regrowth, OD600 at 6h or 8h after dilution into drug-free medium ([3]; E. coli in 1:4 CA-MHB (pH 7.4), concentration 0.5): 0.481; Regrowth, OD600 at 6h or 8h after dilution into drug-free medium ([3]; E. coli in 1:4 CA-MHB (pH 7.4), concentration 1): 0.120; Regrowth, OD600 at 6h or 8h after dilution into drug-free medium ([3]; E. coli in 1:4 CA-MHB (pH 7.4), concentration 2.5): 0.067; Regrowth, OD600 at 6h or 8h after dilution into drug-free medium ([3]; E. coli in 1:4 CA-MHB (pH 7.4), concentration 5): 0.066; Regrowth, OD600 at 6h or 8h after dilution into drug-free medium ([3]; E. coli in 1:4 CA-MHB (pH 7.4), concentration 10): 0.068; Regrowth, OD600 at 6h or 8h after dilution into drug-free medium ([3]; E. coli in 1:4 CA-MHB (pH 7.4), concentration 30): 0.065; Regrowth, OD600 at 6h or 8h after dilution into drug-free medium ([3]; E. coli in LPM (pH 5.5), concentration 0.25): 0.577; Regrowth, OD600 at 6h or 8h after dilution into drug-free medium ([3]; E. coli in LPM (pH 5.5), concentration 0.5): 0.563; Regrowth, OD600 at 6h or 8h after dilution into drug-free medium ([3]; E. coli in LPM (pH 5.5), concentration 1): 0.570; Regrowth, OD600 at 6h or 8h after dilution into drug-free medium ([3]; E. coli in LPM (pH 5.5), concentration 2.5): 0.577; Regrowth, OD600 at 6h or 8h after dilution into drug-free medium ([3]; E. coli in LPM (pH 5.5), concentration 5): 0.574; Regrowth, OD600 at 6h or 8h after dilution into drug-free medium ([3]; E. coli in LPM (pH 5.5), concentration 10): 0.567; Regrowth, OD600 at 6h or 8h after dilution into drug-free medium ([3]; E. coli in LPM (pH 5.5), concentration 30): 0.530
CO[C@H]1/C=C/O[C@@]2(C)Oc3c(C)c(O)c4c(O)c(c(/C=N/N5CCN(C)CC5)c(O)c4c3C2=O)NC(=O)/C(C)=C\C=C\[C@H](C)[C@H](O)[C@@H](C)[C@@H](O)[C@@H](C)[C@H](OC(C)=O)[C@@H]1C [Rifampicin] | 3230 nM | 10619.3 RFU | 4149.04 RFU | 1695.78 RFU | 1392.42 RFU | 1299.69 RFU | 1165.58 RFU | 1042.53 RFU | 2886.31 RFU | 8 µM (≈ 6.58 µg/mL) |  | Fluorescence intensity (RFU), Mean, 0.0625 x MIC ([1]; TC7 cells infected with GFP-expressing S. flexneri, 14 h treatment, 0.0625 x MIC): 10229.8 RFU; Fluorescence intensity (RFU), Mean, 0.125 x MIC ([1]; TC7 cells infected with GFP-expressing S. flexneri, 14 h treatment, 0.125 x MIC): 10528.2 RFU; EC50 ([3]; Escherichia coli, E. coli, LPM pH 5.5, regrowth delay of non-growing bacteria, 24 h treatment, OD600 6 h after 2500-fold dilution, read-out: EC50): 950 nM; EC50 ([3]; Escherichia coli, LPM pH 5.5 (red curve), medium assigned by comparison with Dataset 1, read-out: EC50 (regrowth inhibition curve, Fig. S4)): 970 nM
Cn1c(COP(=O)(NCCBr)NCCBr)cnc1[N+](=O)[O-] [Evofosfamide] | 102000 nM | 9046.58 RFU | 8823.33 RFU | 7151.78 RFU | 5305.28 RFU | 3462.11 RFU |  |  | 8378.86 RFU | 32 µM (≈ 14.4 µg/mL) |  | MIC:IC50 ratio ([1]; S. flexneri MIC in TSB versus intracellular IC50): below 0.5; OD600 at 6hr, Mean ([3]; E. coli in 1:4 CA-MHB (pH 7.4), 0.25 μM): 0.603; OD600 at 6hr, Mean ([3]; E. coli in 1:4 CA-MHB (pH 7.4), 0.5 μM): 0.596; OD600 at 6hr, Mean ([3]; E. coli in 1:4 CA-MHB (pH 7.4), 1 μM): 0.573; OD600 at 6hr, Mean ([3]; E. coli in 1:4 CA-MHB (pH 7.4), 2.5 μM): 0.563; OD600 at 6hr, Mean ([3]; E. coli in 1:4 CA-MHB (pH 7.4), 5 μM): 0.534; OD600 at 6hr, Mean ([3]; E. coli in 1:4 CA-MHB (pH 7.4), 10 μM): 0.521; OD600 at 6hr, Mean ([3]; E. coli in 1:4 CA-MHB (pH 7.4), 30 μM): 0.480; OD600 at 6hr, Mean ([3]; E. coli in LPM (pH 5.5), 0.25 μM): 0.553; OD600 at 6hr, Mean ([3]; E. coli in LPM (pH 5.5), 0.5 μM): 0.543; OD600 at 6hr, Mean ([3]; E. coli in LPM (pH 5.5), 1 μM): 0.392; OD600 at 6hr, Mean ([3]; E. coli in LPM (pH 5.5), 2.5 μM): 0.282; OD600 at 6hr, Mean ([3]; E. coli in LPM (pH 5.5), 5 μM): 0.193; OD600 at 6hr, Mean ([3]; E. coli in LPM (pH 5.5), 10 μM): 0.124; OD600 at 6hr, Mean ([3]; E. coli in LPM (pH 5.5), 30 μM): 0.114; EC50 ([3]; Escherichia coli, pH 5.5): 1540 nM; EC50 ([3]; Escherichia coli, pH 5.5, read-out: EC50 (regrowth inhibition curve, Fig. S4)): 1540 nM; EC50 ([3]; Escherichia coli, pH 7.4): 11600 nM; activity against non-growing UPEC in LPM (pH 5.5) compared to 1:4 CA-MHB (pH 7.4) ([3]; regrowth delay and killing, Figs. 2 and 3): potentiated by the low pH
C[C@H]1NCc2cc(-c3ccc4c(=O)c(C(=O)O)cn(C5CC5)c4c3OC(F)F)ccc21 [Garenoxacin] | 31 nM | 6643.04 RFU | 5273 RFU | 3944.5 RFU | 3336.42 RFU | 2806.31 RFU | 2331.56 RFU | 1840.28 RFU | 3888.86 RFU | 0.0625 µM (≈ 0.0267 µg/mL) | 2190 nM | 
N#Cc1c(N2C[C@@H]3NCCO[C@H]3C2)c(F)cc2c(=O)c(C(=O)O)cn(C3CC3)c12 [Finafloxacin] |  |  |  | 5014.06 RFU | 3886.5 RFU | 3157.03 RFU | 2833.69 RFU | 2227.19 RFU | 6107.08 RFU |  |  | IC50 ([1]; intracellular S. flexneri in TC7 cells, GFP fluorescence after 14 h treatment, read-out: IC50): 202 nM; MIC (μM) TSB ([2]; S. flexneri, extracellular bacteria in TSB): 0.125 µM (≈ 0.0498 µg/mL); EC50 ([3]; E. coli, LPM pH 5.5, regrowth delay of non-growing bacteria, 24 h treatment, OD600 6 h after 2500-fold dilution, read-out: EC50): 13600 nM; EC50 ([3]; E. coli, pH 7.4, regrowth delay of non-growing bacteria, 1:4 CA-MHB, 24 h treatment, OD600 6 h after 2500-fold dilution, read-out: EC50): 7190 nM

Reference: PMC11992225, “Antibacterial compounds against non-growing and intracellular bacteria” (npj Antimicrobials and Resistance, 2025)
